{"source": "patent US6071925A", "about": "(priority 1997, dated 2000)", "origin": "cited, not measured here", "key": {"[1]": {"tested_on": "LC 132 receptor", "settings": "CHO(LC 132+) cells in culture"}, "[2]": {"tested_on": "mice", "settings": "intra-cerebroventricular"}, "[3]": {"tested_on": "mice", "settings": "intra-cerebroventricular", "remark": "listed apart in the source"}}, "data": [{"substance": "OFQ: seventeen amino-acid-long peptide (F-G-G-F-T-G-A-R-K-S-A-R-K-L-A-N-Q), natural ligand for the G-protein coupled receptor OFQ-R", "values": [{"measurement": "effect on adenylate cyclase", "setting": "[1]", "value": "inhibits adenylate cyclase"}, {"measurement": "effect on nociception", "setting": "[2]", "value": "induces hyperalgesia"}, {"measurement": "effect on locomotive activity", "setting": "[3]", "value": "slowed down locomotive activity"}]}]}
